Source: US6951868B2, “Azabicyclic-phenyl-fused-heterocyclic compounds for treatment of disease” (Pfizer Inc., priority 2001, dated 2005)

Biological target: T1, chimeric α7-5HT3 ion channel (UniProt P23979+P36544, M226I/T225I)
T1 construct: pore forming region of the mouse 5HT3 receptor (fusion partner, same polypeptide); expressed in transfected cells
Experiment: Cell-based FLIPR assay measuring the EC50 of α7 nAChR agonists on the chimeric α7-5HT3 receptor
Design: species or system human/mouse
Details: SH-EP1 cells expressing chimeric α7-5HT3 ion channel; increase in intracellular calcium (Calcium Green fluorescence, FLIPR)
Description: Cell-based Assay for Measuring the EC50 of α7 nAChR Agonists
Construction and Expression of the α7-5HT3 Receptor:
The cDNA encoding the N-terminal 201 amino acids from the human α7 nAChR that contain the ligand binding domain of the ion channel was fused to the cDNA encoding the pore forming region of the mouse 5HT3 receptor as described by Eisele J L, et al., Chimaeric nicotinic-serotonergic receptor combines distinct ligand binding and channel specificities, Nature (1993), December 2;366(6454):479-83, and modified by Groppi, et al., WO 00/73431. The chimeric α7-5HT3 ion channel was inserted into pGS175 and pGS179 which contain the resistance genes for G-418 and hygromycin B, respectively. […]
To assay the activity of the α7-5HT3 ion channel, cells expressing the channel were plated into each well of either a 96 or 384 well dish (Corning #3614) and grown to confluence prior to assay. […] The activity of compounds on the chimeric α7-5HT3 ion channel was analyzed on FLIPR. […] Fluorescent emission was measured above 525 nanometers with an appropriate F-stop to maintain a maximal signal to noise ratio. Agonist activity of each compound was measured by directly adding the compound to cells expressing the chimeric α7-5HT3 ion channel and measuring the resulting increase in intracellular calcium that is caused by the agonist-induced activation of the chimeric ion channel. […]

T1 sequence (P36544+P23979 fused P36544:T225I/P36544:M226I): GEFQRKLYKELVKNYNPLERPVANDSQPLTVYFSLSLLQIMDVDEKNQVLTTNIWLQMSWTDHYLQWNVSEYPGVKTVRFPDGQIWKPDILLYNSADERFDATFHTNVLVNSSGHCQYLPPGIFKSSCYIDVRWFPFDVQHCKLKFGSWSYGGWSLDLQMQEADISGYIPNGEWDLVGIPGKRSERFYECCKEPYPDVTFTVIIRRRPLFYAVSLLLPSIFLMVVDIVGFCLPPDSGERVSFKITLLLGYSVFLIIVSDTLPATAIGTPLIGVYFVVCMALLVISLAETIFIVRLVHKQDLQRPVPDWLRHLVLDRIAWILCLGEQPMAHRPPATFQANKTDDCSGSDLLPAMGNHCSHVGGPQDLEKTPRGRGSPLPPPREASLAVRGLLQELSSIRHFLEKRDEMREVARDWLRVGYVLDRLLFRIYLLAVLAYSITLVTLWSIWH

O=C(N[C@H]1CN2CCC1CC2)c1ccc2c(c1)OCC(COCc1ccccc1)O2.O=C(O)/C=C/C(=O)O (single isomer, unassigned) [Example 6(b)]
Agonist activity (result in words): inactive

Cl.O=C(N[C@H]1CN2CCC1CC2)c1ccc2c(c1)O[C@H](COc1ccccc1)CO2 [Example 12, (3R)-N-[(3R)-1-Azabicyclo[2.2.2]oct-3-yl]-3-(phenoxymethyl)-2,3-dihydro-1,4-benzodioxine-6-carboxamide Hydrochloride]
Agonist activity (result in words): inactive
